Laboratory results as given in ChEMBL document CHEMBL4371077, “Cyclic tripeptide-based potent human SIRT7 inhibitors” (Bioorg Med Chem Lett, 2019).
Residues, ends and D or L forms follow the SMILES beside them.

Key:
[1] = target: T1, NAD-dependent protein deacetylase sirtuin-3, mitochondrial (Homo sapiens, UniProt Q9NTG7); assay: Inhibition of deacetylation activity of recombinant human N-terminal His6-tagged SIRT3 (101 to 399 residues) expressed in Escherichia coli using H2N-HK-[Nepsilon-acetyl-lysine]-LM-COOH as substrate measured after 10 mins by HPLC analysis
T1 sequence (Q9NTG7 whole entry): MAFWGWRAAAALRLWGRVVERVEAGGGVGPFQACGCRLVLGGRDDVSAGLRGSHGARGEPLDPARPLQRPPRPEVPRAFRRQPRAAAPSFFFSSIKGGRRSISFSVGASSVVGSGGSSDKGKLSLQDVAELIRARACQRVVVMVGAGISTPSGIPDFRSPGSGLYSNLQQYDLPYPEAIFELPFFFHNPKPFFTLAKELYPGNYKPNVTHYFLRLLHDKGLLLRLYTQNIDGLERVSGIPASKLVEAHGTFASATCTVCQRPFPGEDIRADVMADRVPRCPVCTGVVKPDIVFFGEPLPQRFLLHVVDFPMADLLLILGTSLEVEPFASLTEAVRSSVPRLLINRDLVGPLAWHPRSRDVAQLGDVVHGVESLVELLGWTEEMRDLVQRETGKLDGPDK

[2] = target: T2, NAD-dependent protein deacetylase sirtuin-7 (Homo sapiens, UniProt Q9NRC8); assay: Inhibition of tRNA-activated deacetylation activity of recombinant human full length N-terminal His6-tagged SIRT7 expressed in Escherichia coli using H2N-GGKAPR-[Nepsilon-acetyl-lysine]-QLATKA-CONH2 as substrate measured after 30 mins by HPLC analysis
T2 sequence (Q9NRC8 whole entry): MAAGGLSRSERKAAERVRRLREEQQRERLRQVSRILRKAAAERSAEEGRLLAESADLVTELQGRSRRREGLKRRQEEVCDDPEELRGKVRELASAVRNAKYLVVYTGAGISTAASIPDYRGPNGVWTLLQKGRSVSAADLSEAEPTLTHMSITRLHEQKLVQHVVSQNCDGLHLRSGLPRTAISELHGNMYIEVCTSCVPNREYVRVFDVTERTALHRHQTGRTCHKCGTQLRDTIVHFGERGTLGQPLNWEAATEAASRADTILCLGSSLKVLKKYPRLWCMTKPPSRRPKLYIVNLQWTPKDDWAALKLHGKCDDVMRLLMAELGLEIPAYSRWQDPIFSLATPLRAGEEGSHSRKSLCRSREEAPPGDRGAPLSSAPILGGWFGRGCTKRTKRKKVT

[3] = Proteolytic stability of the compound assessed as Streptomyces griseus pronase-mediated compound hydrolysis by measuring parent compound remaining after 6 mins by HPLC method; assay type: ADME; details: read-out: Stability
[4] = target: T3, NAD-dependent protein deacetylase sirtuin-2 (Homo sapiens, UniProt Q8IXJ6); assay: Inhibition of deacetylation activity of recombinant human N-terminal His6-tagged SIRT2 (2 to 389 residues) expressed in Escherichia coli using H2N-HK-[Nepsilon-acetyl-lysine]-LM-COOH as substrate measured after 12 mins by HPLC analysis
T3 sequence (Q8IXJ6 whole entry): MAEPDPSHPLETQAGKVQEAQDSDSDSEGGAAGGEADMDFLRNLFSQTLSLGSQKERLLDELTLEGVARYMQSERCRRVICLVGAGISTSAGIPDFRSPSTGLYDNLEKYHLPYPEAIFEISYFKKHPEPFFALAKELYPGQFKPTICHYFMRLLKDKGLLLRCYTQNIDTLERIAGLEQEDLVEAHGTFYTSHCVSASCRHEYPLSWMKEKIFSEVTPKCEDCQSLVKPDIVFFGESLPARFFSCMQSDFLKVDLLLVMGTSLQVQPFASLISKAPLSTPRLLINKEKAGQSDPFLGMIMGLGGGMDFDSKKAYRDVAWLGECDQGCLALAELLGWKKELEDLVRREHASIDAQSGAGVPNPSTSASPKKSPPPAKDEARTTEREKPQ

[5] = target: T4, NAD-dependent protein deacetylase sirtuin-1 (Homo sapiens, UniProt Q96EB6); assay: Inhibition of recombinant human SIRT1 deacetylase activity using H2N-HK-[Nepsilon-acetyl-lysine]-LM-COOH as substrate measured after 10 mins by HPLC analysis
T4 sequence (Q96EB6 whole entry): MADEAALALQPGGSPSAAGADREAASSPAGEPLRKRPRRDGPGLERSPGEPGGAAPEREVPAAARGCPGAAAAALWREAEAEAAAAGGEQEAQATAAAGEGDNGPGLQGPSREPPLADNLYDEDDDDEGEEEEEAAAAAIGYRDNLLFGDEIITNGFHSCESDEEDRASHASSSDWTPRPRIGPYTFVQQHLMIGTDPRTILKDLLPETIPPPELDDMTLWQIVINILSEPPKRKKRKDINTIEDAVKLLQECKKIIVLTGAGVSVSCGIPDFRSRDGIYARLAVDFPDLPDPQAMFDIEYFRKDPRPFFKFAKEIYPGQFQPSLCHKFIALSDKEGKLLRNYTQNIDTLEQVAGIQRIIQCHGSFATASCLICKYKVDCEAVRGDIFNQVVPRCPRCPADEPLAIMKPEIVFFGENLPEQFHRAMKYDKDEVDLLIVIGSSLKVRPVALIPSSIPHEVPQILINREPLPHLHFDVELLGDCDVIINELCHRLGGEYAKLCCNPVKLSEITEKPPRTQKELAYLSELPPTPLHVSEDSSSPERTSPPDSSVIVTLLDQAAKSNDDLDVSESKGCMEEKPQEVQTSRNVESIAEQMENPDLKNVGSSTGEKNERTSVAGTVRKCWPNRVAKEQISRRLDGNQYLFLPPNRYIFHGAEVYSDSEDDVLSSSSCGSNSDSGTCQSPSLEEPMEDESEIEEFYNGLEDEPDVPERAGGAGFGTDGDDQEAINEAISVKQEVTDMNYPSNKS

[6] = target: NAD-dependent protein deacylase sirtuin-5, mitochondrial (Homo sapiens, UniProt Q9NXA8); assay: Inhibition of desuccinylation activity of recombinant human full length N-terminal GST-tagged SIRT5 expressed in Escherichia coli using CH3CONH-AR-[Nepsilon-succinyl-lysine]-ST-CONH2 as substrate measured after 5 mins by HPLC analysis
[7] = target: NAD-dependent protein deacylase sirtuin-6 (Homo sapiens, UniProt Q8N6T7); assay: Inhibition of demyristoylation activity of recombinant human full length N-terminal His6-tagged SIRT6 expressed in Escherichia coli using H2N-EALPK-[Nepsilon-myristoyl-lysine]-TGGPQ-CONH2 as substrate measured after 12 mins by HPLC analysis
NAD-dependent protein deacylase sirtuin-6, sequence (Q8N6T7 whole entry): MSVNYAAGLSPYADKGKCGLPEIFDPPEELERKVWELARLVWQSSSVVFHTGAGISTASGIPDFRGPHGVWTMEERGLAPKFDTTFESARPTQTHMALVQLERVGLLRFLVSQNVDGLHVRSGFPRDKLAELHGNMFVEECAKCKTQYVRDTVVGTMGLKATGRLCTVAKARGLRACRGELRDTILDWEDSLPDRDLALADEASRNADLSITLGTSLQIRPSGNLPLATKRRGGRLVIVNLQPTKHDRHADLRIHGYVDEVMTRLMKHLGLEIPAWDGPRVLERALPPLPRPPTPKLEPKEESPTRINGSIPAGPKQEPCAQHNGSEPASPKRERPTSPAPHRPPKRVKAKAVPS

NAD-dependent protein deacylase sirtuin-5, mitochondrial, sequence (Q9NXA8 whole entry): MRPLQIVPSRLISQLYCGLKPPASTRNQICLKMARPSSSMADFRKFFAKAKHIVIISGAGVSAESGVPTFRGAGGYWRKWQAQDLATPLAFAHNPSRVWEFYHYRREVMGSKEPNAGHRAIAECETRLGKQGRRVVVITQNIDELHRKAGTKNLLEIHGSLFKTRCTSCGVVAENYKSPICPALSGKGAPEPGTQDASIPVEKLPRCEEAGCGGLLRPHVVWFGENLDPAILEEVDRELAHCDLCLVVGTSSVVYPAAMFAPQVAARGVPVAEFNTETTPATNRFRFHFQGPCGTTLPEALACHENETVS

IC50 [1] [µM]	IC50 [2] [µM]	remaining at 0.1 h [3] [%]	IC50 [4] [µM]	IC50 [5] [µM]	IC50 [6] [µM]	IC50 [7] [µM]	SMILES
1.6	11.1	55.7	10.3	1.8	> 150	7.9	CCCCCCCCCCCCNC(=S)NCCCC[C@@H]1NC(=O)[C@H](CCCNC(=N)N)NC(=O)CNC(=O)CCC(=O)NCC(=O)NCCCC[C@@H](C(N)=O)NC1=O
	85.3						CCCCCCCCCCCCCCNC(=S)NCCCC[C@@H]1NC(=O)[C@H](CCCNC(=N)N)NC(=O)CNC(=O)CCC(=O)NCC(=O)NCCCC[C@@H](C(N)=O)NC1=O
		51.1					CSCC[C@H](NC(=O)[C@H](CC(C)C)NC(=O)[C@H](CCCCNC(C)=O)NC(=O)[C@H](CCCCN)NC(=O)[C@@H](N)Cc1cnc[nH]1)C(=O)O (H-HKK(Ac)LM-OH)
4.2	5	89.9	0.55	4.3	> 200	11.2	CCCCCCCCCCCCNC(=O)CCCCC[C@@H]1NC(=O)[C@H](CCCNC(=N)N)NC(=O)CNC(=O)CCC(=O)NCC(=O)NCCCC[C@@H](C(N)=O)NC1=O
